Patent US5112806A, “Antibiotic, mersacidin, a process for the preparation thereof and the use thereof as a pharmaceutical” (Hoechst Aktiengesellschaft, priority 1988, dated 1992)

Legend:
S. aureus 3066 = experiment: MIC, growth inhibition in vitro; format: cell-based; conditions: Table 5
Description: (§1) The biological properties of mersacidin as the MIC values required for inhibition of the growth of various microorganisms are listed in Table 3.

S. aureus 710 = experiment: MIC, growth inhibition in vitro; format: cell-based; conditions: Table 5
Description: as §1

S. aureus R 85 = experiment: MIC, growth inhibition in vitro; format: cell-based; conditions: Table 5
Description: as §1

[1] = test system: Staphylococcus aureus 209P; experiment: MIC, growth inhibition in vitro; format: cell-based; conditions: Table 5
Description: as §1

S. aureus 25923 = experiment: MIC, growth inhibition in vitro; format: cell-based; conditions: Table 5
S. epidermidis 32965 = experiment: MIC, growth inhibition in vitro; format: cell-based; conditions: Table 5
S. epidermidis 823 = experiment: MIC, growth inhibition in vitro; format: cell-based; conditions: Table 5
S. haemolyticus 712 = experiment: MIC, growth inhibition in vitro; format: cell-based; conditions: Table 5
S. haemolyticus 809 = experiment: MIC, growth inhibition in vitro; format: cell-based; conditions: Table 5
[2] = test system: Streptococcus hominis ML 22; experiment: MIC, growth inhibition in vitro; format: cell-based; conditions: Table 5
[3] = test system: Streptococcus faecalis 29212; experiment: MIC, growth inhibition in vitro; format: cell-based; conditions: Table 5
[4] = test system: Streptococcus faecalis 21777; experiment: MIC, growth inhibition in vitro; format: cell-based; conditions: Table 5
S. aureus SG 511 = experiment: In vivo activity against S. aureus SG 511 infection in mice; conditions: S. aureus SG 511 (Methicillin sensitive), 1,75 × 10^9 CFU/mouse
Description: On subcutaneous administration in a dose of 9.37 and 25.00 mg/kg to laboratory mice infected experimentally with Staphylococcus aureus SG 511 and S. aureus 710 (resistant to methicillin), […].
In vivo activity of mersacidin against S. aureus SG 511
infection in mice compared with vancomycin.
Inoculation medium used: 1.75 × 10^9 CFU/mouse

S. aureus E 710 (MRSA) = experiment: In vivo activity against S. aureus E 710 (MRSA) in mice; conditions: S. aureus E 710 (Methicillin resistant), 1 × 10^10 CFU/mouse
Description: On subcutaneous administration in a dose of 9.37 and 25.00 mg/kg to laboratory mice infected experimentally with Staphylococcus aureus SG 511 and S. aureus 710 (resistant to methicillin), […]. […]

S. aureus C 31153 = experiment: In vivo activity against S. aureus C 31153 infection in mice; conditions: S. aureus C 31153 (Methicillin & Caphalexin resistant), 2 × 10^9 CFU/mouse
Description: (§2) In vivo activity of potassium mersacidin against S. aureus
(§3) and Streptococcus pyogenes A 77 infection in mice

[5] = test system: Streptococcus pyogenes A 77; experiment: In vivo activity against Streptococcus pyogenes A 77 infection in mice; conditions: Streptococcus pyogenes A 77, 3,8 × 10^3 CFU/mouse
Description: as §2, §3

physchem = conditions: water
Description: These salts can be prepared by the treatment of mersacidin with 1.0 equivalent of the corresponding alkali metal hydroxide in the presence of pyridine. For example, mersacidin (50 mg) was dissolved in 1 ml of pyridine, the solution cooled to 0° C. and a solution of 1.683 mg of KOH in 3 ml of distilled water was added under stirring.

C=C1NC(=O)[C@@H]2NC(=O)[C@H](CC(C)C)NC(=O)[C@H](NC(=O)[C@@H]3CS[C@@H](C)[C@@H](NC(=O)[C@H](Cc4ccccc4)NC(=O)[C@@H]4NC(=O)[C@@H](N)CS[C@H]4C)C(=O)N[C@@H](CC(C)C)C(=O)N4CCC[C@H]4C(=O)NCC(=O)NCC(=O)NCC(=O)NCC(=O)N[C@@H](C(C)C)C(=O)N3)[C@H](C)SC[C@H](NC(=O)[C@H](CCC(=O)O)NC1=O)C(=O)N[C@@H]([C@@H](C)CC)C(=O)N/C=C\S[C@H]2C [potassium mersacidin]
MIC values (S. aureus 3066): 10 µg/mL
MIC values (S. aureus 710): 1 µg/mL
MIC values (S. aureus R 85): 2 µg/mL
MIC values [1]: 2 µg/mL
MIC values (S. aureus 25923): 8 µg/mL
MIC values (S. epidermidis 32965): 6 µg/mL
MIC values (S. epidermidis 823): 50 µg/mL
MIC values (S. haemolyticus 712): 10 µg/mL
MIC values (S. haemolyticus 809): 4 µg/mL
MIC values [2]: 10 µg/mL
MIC values [3]: 15 µg/mL
MIC values [4]: 15 µg/mL
50% Effective Dose (ED50) (S. aureus SG 511): 2,85 mg/kg × 3, s.c.
50% Effective Dose (ED50) (S. aureus E 710 (MRSA)): 6,72 mg/kg × 3, s.c.
50% Effective Dose (ED50) (S. aureus C 31153): 15,35 mg/kg × 3, s.c.
50% Effective Dose (ED50) [5]: 0,46 mg/kg × 3, s.c.
solubility (physchem): ≥ 160 mg/mL
